Measured values from patent US20260130851A1, “PLINABULIN MICELLE COMPOSITION AND PREPARATION METHOD THEREFOR” (priority 2022, published 2026).
Converted amounts (≈) assume the structure as drawn. Read-outs that look alike come from different tables or passages of the source.

Test: Equilibrium solubility of Plinabulin in propylene glycol-D5W diluents (HPLC)
Type: physicochemical
Settings: for Control Group - Absolute Ethanol Test Concentration: 25° C.
Description: Corresponding propylene glycol-D5W injections were prepared. The preparation process was as follows: • Diluent 1 (corresponding to a dilution ratio of 1:20). Weigh about 6 g of propylene glycol, place it in a beaker, add 200 ml of D5W injection, and mix well. • Diluent 2 (corresponding to a dilution ratio of 1:30). Weigh about 4 g of propylene glycol, place it in a beaker, add 200 ml of D5W injection, and mix well. • Diluent 3 (corresponding to a dilution ratio of 1:50): Weigh about 2.4 g of propylene glycol, place it in a beaker, add 200 ml of D5W injection, and mix well.
Acceptance criteria: The concentration of Plinabulin in each solution was determined until there was no significant difference between two consecutive determinations, i.e., equilibrium solubility.
Test solutions were taken at different time points, filtered through a 0.45 μm glass fiber membrane, and injected into the high-performance liquid chromatography system. The equilibrium solubility of Plinabulin in solutions with different ratios at various time points was calculated by the external standard method.

CC(C)(C)c1[nH]cnc1/C=c1\[nH]c(=O)/c(=C/c2ccccc2)[nH]c1=O [Plinabulin, (3Z,6Z)-3-[(5-tert-butyl-1H-imidazol-4-yl)methylene]-6-(phenylmethylene)-2,5-piperazinedione]
Control Group - Absolute Ethanol Test Concentration (Test Sample 1 (49.5 h), Diluent 1 (about 6 g propylene glycol + 200 ml D5W, 1:20), 100 rpm): 0.152 µg/mL | Control Group - Absolute Ethanol Test Concentration (Test Sample 2 (48.5 h), Diluent 2 (about 4 g propylene glycol + 200 ml D5W, 1:30), 100 rpm): 0.125 µg/mL | Control Group - Absolute Ethanol Test Concentration (Test Sample 3 (49 h), Diluent 3 (about 2.4 g propylene glycol + 200 ml D5W, 1:50), 100 rpm): 0.113 µg/mL | solubility thermodynamic at 49.5 h (propylene glycol-D5W diluent, 25 °C, saline or isotonic, thermodynamic from solid, Test Sample 1 (1:20) dilution level, 49.5 h, read-out: Test Concentration (equilibrium solubility)): 0.152 µg/mL (≈ 0.452 µM) | solubility thermodynamic at 72 h (propylene glycol-D5W diluent, 25 °C, saline or isotonic, thermodynamic from solid, Test Sample 1 (1:20) dilution level, 72 h, read-out: Test Concentration (equilibrium solubility)): 0.145 µg/mL (≈ 0.431 µM) | solubility thermodynamic at 94 h (propylene glycol-D5W diluent, 25 °C, saline or isotonic, thermodynamic from solid, Test Sample 1 (1:20) dilution level, 94 h, read-out: Test Concentration (equilibrium solubility)): 0.143 µg/mL (≈ 0.425 µM) | solubility thermodynamic at 49.5 h (propylene glycol-D5W diluent, 25 °C, saline or isotonic, thermodynamic from solid, Test Sample 1 (49.5 h), Diluent 1 (about 6 g propylene glycol + 200 ml D5W, 1:20), 100 rpm, read-out: Control Group - Diluent Test Concentration): 0.155 µg/mL | solubility thermodynamic at 48.5 h (propylene glycol-D5W diluent, 25 °C, saline or isotonic, thermodynamic from solid, Test Sample 2 (1:30) dilution level, 48.5 h, read-out: Test Concentration (equilibrium solubility)): 0.125 µg/mL (≈ 0.372 µM) | solubility thermodynamic at 73 h (propylene glycol-D5W diluent, 25 °C, saline or isotonic, thermodynamic from solid, Test Sample 2 (1:30) dilution level, 73 h, read-out: Test Concentration (equilibrium solubility)): 0.112 µg/mL (≈ 0.333 µM) | solubility thermodynamic at 94.5 h (propylene glycol-D5W diluent, 25 °C, saline or isotonic, thermodynamic from solid, Test Sample 2 (1:30) dilution level, 94.5 h, read-out: Test Concentration (equilibrium solubility)): 0.113 µg/mL (≈ 0.336 µM) | solubility thermodynamic at 48.5 h (propylene glycol-D5W diluent, 25 °C, saline or isotonic, thermodynamic from solid, Test Sample 2 (48.5 h), Diluent 2 (about 4 g propylene glycol + 200 ml D5W, 1:30), 100 rpm, read-out: Control Group - Diluent Test Concentration): 0.13 µg/mL | solubility thermodynamic at 49 h (propylene glycol-D5W diluent, 25 °C, saline or isotonic, thermodynamic from solid, Test Sample 3 (1:50) dilution level, 49 h, read-out: Test Concentration (equilibrium solubility)): 0.113 µg/mL (≈ 0.336 µM) | solubility thermodynamic at 73.5 h (propylene glycol-D5W diluent, 25 °C, saline or isotonic, thermodynamic from solid, Test Sample 3 (1:50) dilution level, 73.5 h, read-out: Test Concentration (equilibrium solubility)): 0.095 µg/mL (≈ 0.282 µM) | solubility thermodynamic at 96 h (propylene glycol-D5W diluent, 25 °C, saline or isotonic, thermodynamic from solid, Test Sample 3 (1:50) dilution level, 96 h, read-out: Test Concentration (equilibrium solubility)): 0.134 µg/mL (≈ 0.398 µM) | solubility thermodynamic at 120 h (propylene glycol-D5W diluent, 25 °C, saline or isotonic, thermodynamic from solid, Test Sample 3 (1:50) dilution level, 120 h, read-out: Test Concentration (equilibrium solubility)): 0.135 µg/mL (≈ 0.401 µM) | solubility thermodynamic at 49 h (propylene glycol-D5W diluent, 25 °C, saline or isotonic, thermodynamic from solid, Test Sample 3 (49 h), Diluent 3 (about 2.4 g propylene glycol + 200 ml D5W, 1:50), 100 rpm, read-out: Control Group - Diluent Test Concentration): 0.117 µg/mL
